Legend:
[1] = Highest frequency of moderate liver toxicity observed during clinical trials, expressed as a percentage. [column '% BIOL' in source]; settings: human
[2] = Highest frequency of acute liver toxicity observed during clinical trials, expressed as a percentage. [column '% AIGUE' in source]; settings: human
[3] = Times to onset, minimal and maximal, observed in the indexed observations. [column 'DELAI' in source]; settings: human
[4] = human, serum
[5] = human, serum; remark: listed apart in the source
[6] = human
[7] = human; remark: listed apart in the source
[8] = human; remark: listed apart in the source
[9] = human, serum, 4383 h
[10] = human; remark: listed apart in the source
[11] = human; remark: listed apart in the source
[12] = human; remark: listed apart in the source
[13] = human; remark: listed apart in the source
[14] = human; remark: listed apart in the source
[15] = human; remark: listed apart in the source
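Throughout, for Hepatotoxicity (association with vascular disease): count of indexed literature references reporting vascular liver injury in humans, e.g. peliosis hepatitis, hepatic veno-occlusive disease or Budd-Chiari syndrome.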
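Throughout, for Hepatotoxicity (benign tumour): value is a count of indexed literature references citing a benign tumour confirmed by histopathology.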
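Throughout, for Hepatotoxicity (choleostasis): human cholestatic liver injury, shown by histopathology or by peak ALT or AST elevation over alkaline phosphatase ratio below 2, value counts indexed literature reports.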
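Throughout, for Hepatotoxicity (chronic liver disease): chronic liver injury confirmed by histopathology or persistently raised serum aminotransferase activity beyond 6 months, value given as the count of indexed literature references.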
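Throughout, for Hepatotoxicity (cirrhosis): value is a count of indexed literature references reporting cirrhosis confirmed by histopathology.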
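Throughout, for Hepatotoxicity (cytolytic): human cytolytic liver injury, shown by histopathology or by a ratio above 5 of peak ALT or AST elevation to alkaline phosphatase elevation, value counts indexed references.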
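Throughout, for Hepatotoxicity (granulomatous hepatitis): value is a count of indexed literature references reporting granulomatous liver disease confirmed by histopathology.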
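Throughout, for Hepatotoxicity (malignant tumour): malignant tumour confirmed by histopathology, value gives the count of indexed literature references reporting it.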
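Throughout, for Hepatotoxicity (severe hepatitis): human clinical data: severe hepatitis, meaning potentially life-threatening liver failure or clinically observed cases, the value counts how many indexed literature references report it.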
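Throughout, for Hepatotoxicity (steatosis): steatosis confirmed by histopathology, value is the count of indexed references.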

Compound | Hepatotoxicity (moderate) [1] [%] | Hepatotoxicity (acute) [2] [%] | Hepatotoxicity (time to onset) [3] | Hepatotoxicity (moderate) [4] | Hepatotoxicity (acute) [5] | Hepatotoxicity (cytolytic) [6] | Hepatotoxicity (choleostasis) [7] | Hepatotoxicity (severe hepatitis) [8] | Hepatotoxicity (chronic liver disease) [9] | Hepatotoxicity (cirrhosis) [10] | Hepatotoxicity (granulomatous hepatitis) [11] | Hepatotoxicity (association with vascular disease) [12] | Hepatotoxicity (steatosis) [13] | Hepatotoxicity (malignant tumour) [14] | Hepatotoxicity (benign tumour) [15] | further results
CC#C[C@]1(O)CC[C@H]2[C@@H]3CCC4=CC(=O)CCC4=C3[C@@H](c3ccc(N(C)C)cc3)C[C@@]21C [MIFEPRISTONE] | 14.3 | 0 | 3 months - 5 months | 2 | 1 | 1 | 0 | 0 | 0 | 0 | 0 | 0 | 0 | 0 | 0 | 
NC(CO)C(=O)NNCc1ccc(O)c(O)c1O (stereo not given) [BENSERAZIDE] | 0 | 3.3 | < 3 months | 0 | 1 | 0 | 0 | 0 | 0 | 0 | 0 | 0 | 0 | 0 | 0 | 
N[C@@H](Cc1ccc(O)c(O)c1)C(=O)O [LEVODOPA] | 9 | 3.3 | < 3 months | 1 | 4 | 0 | 1 | 0 | 0 | 0 | 0 | 0 | 1 | 0 | 0 | 
Cc1c(O)c(=O)ccn1C [DEFERIPRONE] | 59.5 | 1.2 | 3 months | 8 | 1 | 1 | 0 | 0 | 0 | 0 | 0 | 0 | 0 | 0 | 0 | 
CCCCN/C(=C1/C=C(Cl)C=CC1=O)c1ccccc1Cl | 54.5 | 0 | 1 month | 1 | 1 | 0 | 0 | 0 | 0 | 0 | 0 | 0 | 0 | 0 | 0 | 
CC(C)c1cccc(C(C)C)c1O [PROPOFOL] |  |  | 1 day - 4 weeks | 0 | 2 |  |  |  | 0 | 0 |  | 0 | 0 | 0 | 0 | Hepatotoxicity (moderate) ([1]; Liver): 0%; Hepatotoxicity (acute) ([2]; Liver): 0%; Hepatotoxicity (cytolytic) ([6]; Liver): 1; Hepatotoxicity (choleostasis) ([7]; Liver): 1; Hepatotoxicity (severe hepatitis) ([8]; Liver): 0; Hepatotoxicity (granulomatous hepatitis) ([11]; Liver): 0
CC(COc1ccccc1)NN (stereo not given) [PHENOXYPROPAZINE] | 0 | 0 | 1.5 months - 4 months | 0 | 3 | 3 | 0 | 3 | 0 | 0 | 0 | 0 | 0 | 0 | 0 | 
COLESTIPOL | 0.8 | 0 | 6 months | 1 | 1 | 1 | 0 | 0 | 0 | 0 | 0 | 0 | 0 | 0 | 0 | 
CC(=O)OCC(=O)NCCCOc1cccc(CN2CCCCC2)c1 [ROXATIDINE ACETATE] | 0.4 | 0.5 | 4 weeks | 2 | 1 | 0 | 0 | 0 | 0 | 0 | 0 | 0 | 0 | 0 | 0 | 
CN1CCN(C(=S)Nc2ccc(Nc3ccc([N+](=O)[O-])cc3)cc2)CC1 [AMOCARZINE] | 0 | 0 | 4 days - 2 months | 1 | 0 | 0 | 0 | 0 | 0 | 0 | 0 | 0 | 0 | 0 | 0 | 
CN1CCN(C(=O)OC2c3nccnc3C(=O)N2c2ccc(Cl)cn2)CC1 (stereo not given) [ZOPICLONE] | 0 | 0 | 6 months | 0 | 1 | 1 | 1 | 0 | 0 | 0 | 0 | 0 | 0 | 0 | 0 | 
CC1=C(/C=C/C(C)=C/C=C/C(C)=C/C(=O)Nc2ccc(O)cc2)C(C)(C)CCC1 [FENRETINIDE] | 12.8 | 0 | 1 week | 3 | 0 | 0 | 0 | 0 | 0 | 0 | 0 | 0 | 0 | 0 | 0 | 
Cc1ccccc1N1C(=O)c2cc(S(N)(=O)=O)c(Cl)cc2NC1C (stereo not given) [METOLAZONE] | 0 | 0 | 8 days - 3 months | 0 | 2 | 0 | 1 | 1 | 0 | 0 | 1 | 0 | 0 | 0 | 0 | 
UROKINASE | 0 | 0 | 2 days | 0 | 1 | 1 | 0 | 0 | 0 | 0 | 0 | 0 | 0 | 0 | 0 | 
CCN(CC)CCNC(=O)c1cc(Cl)c(N)cc1OC [METOCLOPRAMIDE] | 6 | 0 | 2 days - 4 months | 2 | 1 | 1 | 0 | 0 | 0 | 0 | 0 | 1 | 0 | 0 | 0 | 

Source: ChEMBL document CHEMBL3137667, “[Drug-induced liver injury; fourteenth updated edition of the bibliographic database of liver injuries and related drugs]” (Gastroenterol Clin Biol, 2004)
